The test system of the assay is VCAM-1. Briefly: VCAM-1 Assay: TNF-stimulated cells, cell-surface ELISA. The class given is cell-based. Conditions: for IC50: bare number = IC50, NE not defined in the patent, read-out: VCAM-1 IC50 or % inhibition at [μM]: IC50. On the procedure: Two to four confluent P150 plates are trypsinized and the cells transferred to a 50 mL conical centrifuge tube. The cells are pelleted, resuspended, and counted using the trypan blue exclusion method.
Cells are resuspended at a concentration of 36,000 cells/mL and 1 mL is aliquoted per well.
Cells are split into 24 well tissue culture plates. The cells in each well should be approximately 90-95% confluent by the following day. Cells should not be older than passage 8.
Compounds are initially screened at 50 μM and 10 μM. A 50 mM stock solution for each compound is prepared in culture medium. The stock solution is diluted to 5 mM and 1 mM. When 10 μL of the 5 mM solution is added to the well (1 mL medium/well), the final concentration will be 50 μM. Adding 10 μL of the 1 mM solution to the well will give a final concentration of 10 μM.
Compounds which will not go into solution in culture medium are resuspended in DMSO at a concentration of 25 mM. The stock solution is then diluted to the final concentration in culture medium. The old medium is aspirated and 1 mL of the new medium with the compound is added. For example, if the final concentration is 50 μM, the 2 μL of the 25 mM stock is added per mL of culture medium. The […] solution is diluted for lower concentrations.
The compounds are added to the plate (each compound is done in duplicate). One plate is done for VCAM expression and one plate is done for ICAM expression.
Immediately after the compounds are added, TNF is added to each well. 100 units/mL TNF is usually added to each well. Since each lot of TNF varies in the number of units, each new lot is titrated to determine the optimum concentration. Therefore this concentration will change. If 100 units/mL is bing used, dilute the TNF to 10 units/μL and add 10 μL to each well.
The plates are incubated at 37° C., 5% CO2 overnight (approximately 16 hours). The next day the plates are checked under the microscope to see if there are any visual signs of toxicity. Records are made of any cell death, debris, or morphology changes, as well as insoluble compounds (particulate or turbity).
In order to assess MCP-1, the media (500 μL) is saved and frozen at −70° C. Wash cells once with roughly 1 ml/well of Hanks Balance Salt Solution (HBSS) or PBS. Gently empty the wash solution and then tap the plate onto paper towels. Add either 250 μL/well of HBSS +5% FCCS to the plank (no primary antibody wells) or 250 μL/well of primary antibody diluted in HBSS +5% FCS. Incubate for 30 minutes at 37° C. Wash the wells twice with 0.5 mL/well HBSS or PBS and gently tap the plates onto paper towels after the last wash. Add 250 μL/well of HRP-conjugated second antibody diluted in HBSS +5% FCS to every well including the blank wells (no primary antibody). Incubate at 37° C. for 30 minutes. Wash the wells four times with 0.5 mL/well HBSS or PBS and gently tap the plates onto paper towels after the last wash. Add 250 μL/well of substrate solution. Incubate at room temperature in the dark until there is adequate color development (blue). Note the length of time incubation was performed (typically 15-30 minutes). Add 75 μL/well stopper solution (8N sulfuric acid), and read A450 nm.
(In general: An ELISA detects its analyte on a solid surface through an enzyme-linked reagent.)

Usually IC50 stands for the midpoint of a concentration-inhibition curve.

For `CC(C)(C)c1cc(SCc2ccc(C(=O)O)o2)cc(C(C)(C)C)c1O` [2,6-di-tert-butyn4-thio((2′-furancarboxylic acid)-5-methyl)phenol], the IC50 amounted to 40 µM. As for `CC1(C)OC2OC(COc3c(C(C)(C)C)cc(SC(C)(C)Sc4cc(C(C)(C)C)c(O)c(C(C)(C)C)c4)cc3C(C)(C)C)C3OC(C)(C)OC3C2O1` [α-D-Galactopyranose, 60-[4-[[1-[[3,5-bis(1,1-dimethylethyl)-4-hydroxyphenyl]thio]-1-methylethyl]thio]-2,6-bis(1,1-dimethylethyl)phenyl]-1,2:3,4-bis-O-(1-methylethylidene)], the IC50 came to 45 µM. Still for that read-out and setting: with `CC(C)(Sc1cc(C(C)(C)C)c(O)c(C(C)(C)C)c1)Sc1cc(C(C)(C)C)c(OCC(O)C2CO2)c(C(C)(C)C)c1` (stereo not drawn) [Oxiranemethanol, α-[[4-[[1-[[3,5-bis(1,1-dimethylethyl)-4-hydroxyphenyl]thio]-1-methylethyl]thio]-2,6-bis(1,1-dimethylethyl)phenoxy]methyl]-] the figure was 45 µM; with “2,6-di-tert-butyl-4-thio(3′,5′-ditert-butyl,4′-hydroxy butanedioic acid ester)phenol”, 6 µM.

Turning to `CC(C)(Sc1cc(C(C)(C)C)c(O)c(C(C)(C)C)c1)Sc1cc(C(C)(C)C)c(OCC2OC2CO)c(C(C)(C)C)c1` (stereo not drawn) [Oxiranemethanol, 3-[[4-[[1-[[3,5-bis(1,1-dimethylethyl)-4-hydroxyphenyl]thio]-1-methylethyl]thio]-2,6-bis(1,1-dimethylethyl)phenoxy]methyl]-], the IC50 is > 100 µM. `CC(=O)OC(C)(C)CSc1cc(C(C)(C)C)c(O)c(C(C)(C)C)c1` [2,6-di-tert-butyl-4-thio(2′-acetoxy,2′-methylpropyl)phenol]: the IC50 was found to be 50 µM. Take `CC(C)(C)c1cc(SCCCC(=O)O)cc(C(C)(C)C)c1O` [2,6-di-tert-butyl-4-thio(butanoic acid)phenol]: the IC50 is 75 µM. On the same count and under the same terms, with “Oxiranemethanol, α-[[[3-[[4-[[1-[[3,5-bis(1,1-dimethylethyl)-4-hydroxyphenyl]thio]-1-methylethyl]thio]-2,6-bis(1,1-dimethylethyl)phenoxy]methyl]oxiranyl]methoxy]methyl]-” the figure was 60 µM. With `CC(C)(C)c1cc(SCCCS(=O)(=O)O)cc(C(C)(C)C)c1O` [2,6-di-tert-butyl-4-thio(3′-propanesulfonic acid)phenol], under “at 50 μM”, the “VCAM-1 % inhibition at [μM]” value was 25% at 50.

For the origin of these results see patent publication US6602914B2, “Compounds and methods for the inhibition of the expression of VCAM-1” (AtheroGenics, Inc., priority 1997, dated 2003).
